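Cultured in 96-well plates, cells were exposed to test compound for 48 hours across five concentrations. Here, GI50 denotes the concentration required for 50% inhibition of growth.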 Activity calls are given as the source filed them. No stated cut-off is given here; in the data, active = GI50 up to about 1.1 µM and inactive = higher.
How the values were obtained:
Assay in all cases: NCI anticancer screen, dose series, 48 h
[1] = tested on: Hs-578T
[2] = tested on: UO-31
[3] = tested on: IGROV-1
[4] = tested on: COLO 205
[5] = tested on: OVCAR-4
[6] = tested on: MDA-MB-231
[7] = tested on: M14
[8] = tested on: EKVX
[9] = tested on: SF-539
[10] = tested on: SK-OV-3
[11] = tested on: NCI/ADR-RES
[12] = tested on: SF-268
[13] = tested on: Malme-3M
[14] = tested on: RPMI-8226
[15] = tested on: HL-60
[16] = tested on: U-251
[17] = tested on: UACC-62
[18] = tested on: A549
[19] = tested on: OVCAR-8
[20] = tested on: CCRF-CEM

| SMILES | GI50 [1] | GI50 [2] | GI50 [3] | GI50 [4] | GI50 [5] | GI50 [6] | GI50 [7] | GI50 [8] | GI50 [9] | GI50 [10] | GI50 [11] | GI50 [12] | GI50 [13] | GI50 [14] | GI50 [15] | GI50 [16] | GI50 [17] | GI50 [18] | GI50 [19] | GI50 [20] |
| --- | --- | --- | --- | --- | --- | --- | --- | --- | --- | --- | --- | --- | --- | --- | --- | --- | --- | --- | --- | --- |
| CCOC(=O)c1c(Br)c(-c2ccc(Br)cc2)c(Br)n1C | 34.3 µM (inactive) | 17.9 µM (inactive) | 12.2 µM (inactive) | 14.9 µM (inactive) | 19.3 µM (inactive) | 13.6 µM (inactive) | 18.8 µM (inactive) | 8.99 µM (inactive) | 21.3 µM (inactive) | 32.8 µM (inactive) | 5.38 µM (inactive) | 19.7 µM (inactive) | 18.5 µM (inactive) | 17.9 µM (inactive) | 6.59 µM (inactive) | 18 µM (inactive) | 9.27 µM (inactive) | 23.6 µM (inactive) | 28.8 µM (inactive) | 14.7 µM (inactive) |
| COC(=O)C1=C(OC(=O)c2ccccc2)C(C(=O)OC)[C@]2(O)[C@@H](C(=O)OC)[C@H]1C[C@@H](c1ccccc1)[C@@H]2C(=O)OC (stereo not given in full) | 13.8 µM (inactive) | 2.52 µM (inactive) | 4.69 µM (inactive) | 10.2 µM (inactive) | 10.6 µM (inactive) | 15.7 µM (inactive) | 1.95 µM (inactive) | 34 µM (inactive) | 2.2 µM (inactive) | 10.6 µM (inactive) | 2.62 µM (inactive) | 11.4 µM (inactive) | 13.5 µM (inactive) | 1.74 µM (inactive) | 2.02 µM (inactive) | 5.24 µM (inactive) | 11.6 µM (inactive) | 9.18 µM (inactive) | 6.11 µM (inactive) | 0.716 µM (active) |
| O=C(Nc1noc(-c2ccccc2)n1)c1ccccc1CNc1noc(-c2ccccc2)n1 | > 100 µM (inactive) | > 100 µM (inactive) | > 100 µM (inactive) | > 100 µM (inactive) | > 100 µM (inactive) | > 100 µM (inactive) | > 100 µM (inactive) | 76.7 µM (inactive) | > 100 µM (inactive) | > 100 µM (inactive) | > 100 µM (inactive) | > 100 µM (inactive) | > 100 µM (inactive) | > 100 µM (inactive) | > 100 µM (inactive) | > 100 µM (inactive) | > 100 µM (inactive) | > 100 µM (inactive) | > 100 µM (inactive) | > 100 µM (inactive) |
| COCC(=O)OC1CCn2c1nc1c2C(=O)C(C)=C(NC(C)=O)C1=O (stereo not given) | 4.06 µM (inactive) | 12.6 µM (inactive) | 14.5 µM (inactive) | 15.5 µM (inactive) | 1.85 µM (inactive) | 1.24 µM (inactive) | 11.1 µM (inactive) | 7.6 µM (inactive) | 3.94 µM (inactive) | 15.4 µM (inactive) | 4.49 µM (inactive) | 6.73 µM (inactive) | 2.77 µM (inactive) | 2.33 µM (inactive) | 1.43 µM (inactive) | 6.05 µM (inactive) | 3.27 µM (inactive) | 21.6 µM (inactive) | 3.48 µM (inactive) | 0.857 µM (active) |
| CCCCCC(=O)OCC(=O)[C@H]1[C@H](C)C[C@H]2[C@@H]3C[C@H](F)C4=C/C(=N/OC(=O)c5cccc6c(=O)c7ccccc7[nH]c56)C=C[C@]4(C)[C@H]3[C@@H](O)C[C@@]21C | 31.7 µM (inactive) | 16 µM (inactive) | 25.2 µM (inactive) | 24.3 µM (inactive) | 27.4 µM (inactive) | 40.8 µM (inactive) | 28.6 µM (inactive) | 25.5 µM (inactive) | 23.9 µM (inactive) | 24.8 µM (inactive) | 11.2 µM (inactive) | 53.8 µM (inactive) | 12.5 µM (inactive) | < 0.01 µM (active) | > 100 µM (inactive) | 45.9 µM (inactive) | 16.7 µM (inactive) | 20.6 µM (inactive) | 10.8 µM (inactive) | 89.7 µM (inactive) |
| C[Si](C)(c1ccccc1)[C@H]1CCCC=C1CCNC1c2ccccc2CCc2ccccc21 | > 100 µM (inactive) | 49.5 µM (inactive) | 49.7 µM (inactive) | 38.9 µM (inactive) | 41.5 µM (inactive) | 89.7 µM (inactive) | 56.5 µM (inactive) | 29.4 µM (inactive) | > 100 µM (inactive) | > 100 µM (inactive) | 76.2 µM (inactive) | > 100 µM (inactive) | 80 µM (inactive) | 46.8 µM (inactive) | 1.79 µM (inactive) | > 100 µM (inactive) | 61.4 µM (inactive) | 61.8 µM (inactive) | > 100 µM (inactive) | 1.07 µM (active) |
| Nc1onc2c1Cc1c(noc1N)-c1ccccc1-2 | 26.9 µM (inactive) | 53.6 µM (inactive) | 54.5 µM (inactive) | 58.6 µM (inactive) | > 100 µM (inactive) | 35.1 µM (inactive) | 84.3 µM (inactive) | 16.3 µM (inactive) | 96.8 µM (inactive) | 45.1 µM (inactive) | > 100 µM (inactive) | 54 µM (inactive) | 41.9 µM (inactive) | 53.7 µM (inactive) | 19.8 µM (inactive) | 57.5 µM (inactive) | 27.4 µM (inactive) | 71 µM (inactive) | 59.6 µM (inactive) | 42.7 µM (inactive) |
| c1c2c(cc3c1OCO3)-c1cc3ccc4c(c3c[n+]1CC2)OCO4 [COPTISINE CHLORIDE] | 1.38 µM (inactive) | 0.857 µM (active) | 2.04 µM (inactive) | 3.56 µM (inactive) | 5.09 µM (inactive) | 1.13 µM (inactive) | 1 µM (active) | 7.71 µM (inactive) | 0.887 µM (active) | 3.3 µM (inactive) | 0.348 µM (active) | 2.36 µM (inactive) | 0.259 µM (active) | 0.711 µM (active) | 0.406 µM (active) | 0.935 µM (active) | 0.891 µM (active) | 4.44 µM (inactive) | 1.16 µM (inactive) | 0.764 µM (active) |
| CCOC(=O)CCc1cn2cc(Br)nc(OC)c2n1 | > 100 µM (inactive) | 23.2 µM (inactive) | 65.6 µM (inactive) | 9.12 µM (inactive) | > 100 µM (inactive) | 39.2 µM (inactive) | > 100 µM (inactive) | > 100 µM (inactive) | 50.5 µM (inactive) | 48.1 µM (inactive) | 24.9 µM (inactive) | > 100 µM (inactive) | > 100 µM (inactive) | 44 µM (inactive) | > 100 µM (inactive) | 65.6 µM (inactive) | 36 µM (inactive) | 62.4 µM (inactive) | 59.2 µM (inactive) | 10.1 µM (inactive) |
| Cc1ncc([N+](=O)[O-])n1CCNS(=O)(=O)CCCn1ncnc1[N+](=O)[O-] | > 100 µM (inactive) | > 100 µM (inactive) | > 100 µM (inactive) | > 100 µM (inactive) | > 100 µM (inactive) | > 100 µM (inactive) | > 100 µM (inactive) | > 100 µM (inactive) | > 100 µM (inactive) | > 100 µM (inactive) | > 100 µM (inactive) | > 100 µM (inactive) | > 100 µM (inactive) | > 100 µM (inactive) | > 100 µM (inactive) | > 100 µM (inactive) | > 100 µM (inactive) | > 100 µM (inactive) | > 100 µM (inactive) | > 100 µM (inactive) |
| C[N+]1(CCCl)CC[N+](C)(CCCl)CC1 (stereo not given) | > 100 µM (inactive) | 99.5 µM (inactive) | > 100 µM (inactive) | > 100 µM (inactive) | > 100 µM (inactive) | > 100 µM (inactive) | > 100 µM (inactive) | > 100 µM (inactive) | > 100 µM (inactive) | > 100 µM (inactive) | > 100 µM (inactive) | > 100 µM (inactive) | > 100 µM (inactive) | > 100 µM (inactive) | 28.8 µM (inactive) | > 100 µM (inactive) | > 100 µM (inactive) | > 100 µM (inactive) | > 100 µM (inactive) | > 100 µM (inactive) |
| CCOC(=O)C(NC(=O)c1ccccc1)(Nc1ccc(S(=O)(=O)Nc2cc(C)on2)cc1)C(F)(F)F (stereo not given) | > 100 µM (inactive) | > 100 µM (inactive) | > 100 µM (inactive) | > 100 µM (inactive) | > 10 µM (inactive) | > 100 µM (inactive) | > 100 µM (inactive) | > 100 µM (inactive) | > 100 µM (inactive) | > 100 µM (inactive) | > 100 µM (inactive) | > 100 µM (inactive) | > 100 µM (inactive) | > 100 µM (inactive) | > 100 µM (inactive) | > 100 µM (inactive) | > 100 µM (inactive) | > 100 µM (inactive) | > 100 µM (inactive) | > 100 µM (inactive) |
| COc1cc(C2c3[nH]c4ccc(F)cc4c3C[C@H]3COC(=O)N23)cc(OC)c1O (stereo not given in full) | 2.85 µM (inactive) | 12.6 µM (inactive) | 13.2 µM (inactive) | 4.18 µM (inactive) | 16.2 µM (inactive) | 22.1 µM (inactive) | 17 µM (inactive) | 24 µM (inactive) | 2.93 µM (inactive) | 15.5 µM (inactive) | 4.93 µM (inactive) | 11.5 µM (inactive) | 14.7 µM (inactive) | 96.6 µM (inactive) | 7.71 µM (inactive) | 6.47 µM (inactive) | 12.1 µM (inactive) | 6.65 µM (inactive) | 10.1 µM (inactive) | 6.89 µM (inactive) |
